According to patent publication US20080293070A1, “Markers for Memory T Cells and Uses Thereof” (priority 2005, published 2008):

B1: IL-7: cytokine purchased from R&D systems (protein, UniProt P13232 26-177, looked up)
Interleukin-7: DCDIEGKDGKQYESVLMVSIDQLLDSMKEIGSNCLNNEFNFFKRHICDANKEGMFLFRAARKLRQFLKMNSTGDFDLHLLKVSEGTTILLNCTGQVKGRKPAALGEAQPTKSLEENKSLKEQKKLNDLCFLKRLLQEIKTCWNKILMGTKEH

Experiments:
Type in all cases: cell-based, human
[1] = tested on: pAKT (S473); experiment: AKT phosphorylation (S473) in TCM- and TEM-gated PBMCs, PhosFlow; conditions: H2O2 5 mM, 15 min; TCM vs TEM
Protocol: FIG. 7. AKT and IKK mediate FOXO3a phosphorylation and survival in CD4^+ T cell. (A) Regulation of FOXO3a phosphorylation. Purified CD4^+ T Cells were pre-treated for 1 hour with kinase inhibitors (AKT-VI, AKT inhibitor: 10 μM; STO-609, CamKK inhibitor: 5 μg/ml; Wedelolactone, IKK inhibitor: 100 μM and U0126, MEK1/2 inhibitor: 50 μM). pFoxo3a (S253) was assessed. The results are representative of two independent experiments. (B) CD4^+ T cell susceptibility to apoptosis induced upon treatment with specific kinase inhibitors. CD4^+ T cells were cultured in the presence of kinase inhibitors for 24 hrs (U0126:100 μM; STO-609:10 μg/ml; Wedelolactone and AKT-IV as indicated). After 24 h, the proportion of Annexin-V^+, propidium iodide (PI)^+ cells was quantified by flow cytometry. […] Cells were analyzed by Western Blot (WB) using Bim specific antibodies. […] The levels of pAKT were assessed by flow cytometry in TCM- and TEM-gated subsets. The results are represented as the mean fold increase ±SD, calculated as (MFI of stimulated cells/MFI of un-stimulated cells) of five independent experiments. Values of p (determined by two-tailed T-test) are shown. […]
To assess the importance of AKT and IKK in the survival of memory T cells, we evaluated the expression of the phosphorylated forms of these proteins in TCM and TEM subsets. […]

[2] = tested on: CD4+ T cells; experiment: Apoptosis of CD4+ T cells cultured with kinase inhibitors, Annexin-V flow cytometry; conditions: for proportion of Annexin-V+ cells: CD4+ T cells, 24 hrs with inhibitor; for inhibitor treatment concentration: concentration used to treat sorted TCM and TEM, what the IC50 refers to is not stated
Protocol: FIG. 7. AKT and IKK mediate FOXO3a phosphorylation and survival in CD4^+ T cell. (A) Regulation of FOXO3a phosphorylation. Purified CD4^+ T Cells were pre-treated for 1 hour with kinase inhibitors (AKT-VI, AKT inhibitor: 10 μM; STO-609, CamKK inhibitor: 5 μg/ml; Wedelolactone, IKK inhibitor: 100 μM and U0126, MEK1/2 inhibitor: 50 μM). pFoxo3a (S253) was assessed. The results are representative of two independent experiments. (B) CD4^+ T cell susceptibility to apoptosis induced upon treatment with specific kinase inhibitors. CD4^+ T cells were cultured in the presence of kinase inhibitors for 24 hrs (U0126:100 μM; STO-609:10 μg/ml; Wedelolactone and AKT-IV as indicated). After 24 h, the proportion of Annexin-V^+, propidium iodide (PI)^+ cells was quantified by flow cytometry. The results are depicted as a percentage of apoptotic cells within the total population and are representative of two independent experiments. (C) Bim expression levels in response to AKT and IKK inhibitors. CD4^+ T cells were treated with AKT-IV (1.6 μM) or wedelolactone (100 μM) for 24 h. Cells were analyzed by Western Blot (WB) using Bim specific antibodies. (D and E) Regulation of AKT and IKK phosphorylation in 4^+ memory subsets. (D) pIKKαβ (S176/180) protein levels in ex-vivo sorted TCM and TEM. […] (E) PBMCs, from healthy donors, were treated with H2O2 (5 mM) or Ig-cross-linked CD28 (2 Hg/ml) for 15 min at 37° C. and labeled with CD4, CD27, CD45RA and pAKT (S473) specific antibodies. The levels of pAKT were assessed by flow cytometry in TCM- and TEM-gated subsets. The results are represented as the mean fold increase ±SD, calculated as (MFI of stimulated cells/MFI of un-stimulated cells) of five independent experiments. Values of p (determined by two-tailed T-test) are shown.
(§1) Induction and quantification of apoptosis. Apoptotic cells were detected using annexin-V labeling according to the manufacturer's protocol (Biosource). The fluorescence signals were measured by flow cytometry using a BD LSRI flow cytometer (BD-Biosciences). Approximately 50,000-gated events were collected for each sample.
To confirm the importance of the phosphorylation of FOXO3a in memory T-cell survival, purified CD4^+ T cells were treated with different kinase-inhibitors, and apoptosis was assessed by flow cytometry using Annexin-V labeling. […] Moreover, we observed a significant upregulation of the levels of the pro-apoptotic molecule Bim, known to be a FOXO3a target, in cells treated with AKT or IKK inhibitors (three and eightfold respectively) (FIG. 7C). […] None of the other kinase-inhibitors tested induced apoptosis in CD4^+ T cells (FIG. 7B) even when used at much higher concentrations (data not shown). […]

[3] = tested on: FasL; experiment: FasL expression in CD4+ T cells after AKT and IKK inhibitors, Western blot or flow cytometry; conditions: data not shown
[4] = tested on: Bim; experiment: Bim expression in CD4+ T cells in response to AKT and IKK inhibitors, Western blot; conditions: 24 h, AKT-IV 1.6 μM, wedelolactone 100 μM
Protocol: (§2) FIG. 7. AKT and IKK mediate FOXO3a phosphorylation and survival in CD4^+ T cell. (A) Regulation of FOXO3a phosphorylation. Purified CD4^+ T Cells were pre-treated for 1 hour with kinase inhibitors (AKT-VI, AKT inhibitor: 10 μM; STO-609, CamKK inhibitor: 5 μg/ml; Wedelolactone, IKK inhibitor: 100 μM and U0126, MEK1/2 inhibitor: 50 μM). pFoxo3a (S253) was assessed. The results are representative of two independent experiments. (B) CD4^+ T cell susceptibility to apoptosis induced upon treatment with specific kinase inhibitors. CD4^+ T cells were cultured in the presence of kinase inhibitors for 24 hrs (U0126:100 μM; STO-609:10 μg/ml; Wedelolactone and AKT-IV as indicated). After 24 h, the proportion of Annexin-V^+, propidium iodide (PI)^+ cells was quantified by flow cytometry. […] Cells were analyzed by Western Blot (WB) using Bim specific antibodies. […] The levels of pAKT were assessed by flow cytometry in TCM- and TEM-gated subsets. The results are represented as the mean fold increase ±SD, calculated as (MFI of stimulated cells/MFI of un-stimulated cells) of five independent experiments. Values of p (determined by two-tailed T-test) are shown.
(§3) Western Blotting analysis. […] HRP activity was detected using an enhanced chemiluminescence detection procedure (ECL-plus detection system, Amersham Biosciences). […] Protein expression levels were expressed as a percentage of the highest signals obtained. […]

[5] = tested on: pFOXO3a (S253); experiment: FOXO3a phosphorylation (S253) in CD4+ T cells after kinase inhibitors, Western blot; conditions: purified CD4+ T cells pre-treated 1 hour; AKT inhibitor 10 μM, Wedelolactone 100 μM
Protocol: as §2, §3

[6] = tested on: TCM; experiment: Apoptosis of sorted TCM induced by kinase inhibitors, Annexin-V labeling; conditions: 24 h, AKT-IV 1.6 μM, wedelolactone 100 μM, n=2
Protocol: (§4) FIG. 8. Susceptibility of TCM and TEM to apoptosis induced by kinase inhibitors. Sorted TCM and TEM were cultured with or without AKT and IKK inhibitors as indicated. After 24 h, the percentage of apoptotic cells was quantified by Annexin-V-FITC labeling. Upper panel depict Results from a representative individual. Histogram plots show the percent of Annexin-V positive cells in TCM and TEM cells following a 24 h exposure to AKT or IKK-inhibitors. The dashed lines correspond to untreated cells while the plain lines correspond to cells treated with kinase-inhibitors. […] The fold increase of apoptosis is calculated as % of apoptotic cells in treated cells divided by the % of apoptotic cells in untreated cells.
as §1
(§5) After 24 h of treatment, the proportion of apoptotic cells was quantified using Annexin-V labeling (FIG. 8, top panel).

[7] = tested on: TEM; conditions: sorted TEM, 24 h; AKT-IV 1.6 μM, wedelolactone 100 μM; n=2
Protocol: as §4, §1, §5

[8] = tested on: pSTAT5a (Y694); experiment: STAT5a phosphorylation in TCM and TEM in response to IL-2 or IL-7, flow cytometry
Protocol: (B, C and D) PBMCs from healthy donors were treated with IL-2 (100 U/ml) or IL-7 (10 ng/ml) for 15 min at 37° C. Cells were then labeled with Abs to CD4, CD27, CCR7, CD45RA and pSTAT5a. (B) Representative example of pSTAT5a expression levels. TCM-gated cells are represented in light grey and TEM-gated cells are represented in black. (C) Mean Fluorescence Intensity (MFI) of pSTAT5a level of expression measured in response to IL-2 or IL-7, in TCM and TEM (n=4). Mean pSTAT5a signal values are represented by black bars. P-values (determined by a two-tailed T-test) are shown (D) Expression level of CD127, CD25 and CD132 in ex-vivo TCM and TEM.
Flow cytometry analysis of STAT5a and AKT phosphorylation status. PBMCs were resuspended at 20 millions/ml in RPMI and incubated for 30 min in the presence of CCR7-FITC abs (20 μl/million cells) at room temperature. The cells were then washed and re-suspended at a cell concentration of 5 millions per ml in PBS and stimulated for 15 min at 37° C. in the presence of IL-2 (100 U/ml) or IL-7 (10 ng/ml). Following stimulation, the cells were fixed for 10 min at 37 degrees using cytofix buffer (BD Biosciences), pelleted and then permeabilized in PERM-III buffer (BD Biosciences) for 30 min on ice. […]
The phosphorylated form of STAT5a (Y694) (pSTAT5a) was quantified by flow cytometry.

[9] = tested on: pFOXO3a (S253, S315 and T32); experiment: FOXO3a phosphorylation in CD4+ T cells in response to TCR and cytokine engagement, Western blot; conditions: 30 min, IL-7 10 ng/ml, IL-2 100 U/ml
Protocol: (A) CD4^+ T cells were cultured in the presence of anti-CD3 (2 μg/ml), anti-CD28 (2 μg/ml), anti-CD3+CD28, IL-2 (100 U/ml), IL-7 (10 ng/ml), IFN-γ (50 μg/ml) or PMA (50 ng/ml) for 15 min and analyzed by Western Blot for pFOXO3a (S315 and S253) expression levels. The results are representative of two independent experiments. (B) CD4^+ T cells were cultured in the presence of anti-CD3/anti-CD28, IL-2 (100 U/ml), IL-7 (10 ng/ml) for 30 min and analyzed by Western Blot for pFOXO3a (T32) expression levels.
Western Blotting analysis. […] Cells were washed twice with PBS and re-suspended in lysis buffer containing 50 mM NaF and 1 mM sodium pyrophosphate. Proteins from total cell extracts (10 μg) were separated on SDS-PAGE and electrotransfered onto PVDF membranes (Roche, Indianapolis, Ind.). Membranes were incubated overnight at 4° C. with specific antibodies as described in the figure legends. Detection of the immune complexes was performed using horseradish peroxidase (HRP)-conjugated goat anti-mouse (1:2500) or goat anti-rabbit IgG antibodies (1:3000). HRP activity was detected using an enhanced chemiluminescence detection procedure (ECL-plus detection system, Amersham Biosciences). Membranes were subsequently stripped and restained with an anti-actin Abs (1:10000). […] Protein expression levels were expressed as a percentage of the highest signals obtained.

Molecule | proportion of Annexin-V+ cells [2] | levels of FasL expression [3] | upregulation of Bim levels [4] | expression levels of pFOXO3a (S253), fold lower as compared to untreated cells [5] | also measured
OO [H2O2] | – | – | – | – | induction of pAKT (S473) [1]: higher in TCM than TEM
CC[n+]1c(/C=C/N(C)c2ccccc2)n(-c2ccccc2)c2ccc(-c3nc4ccccc4s3)cc21.[I-] [AKT-IV] | increased in a dose-dependant fashion | did not change | three | eightfold | inhibitor treatment concentration [2]: 1.6 µM
COc1cc(O)c2c(c1)oc(=O)c1c3cc(O)c(O)cc3oc21 [Wedelolactone] | increased in a dose-dependant fashion | did not change | eightfold | 4.5 fold | inhibitor treatment concentration ([2]; Homo sapiens, CD4+ T): 100 µM; increase in Annexin-V+ cells relative to untreated cells [6]: eightfold; increase in Annexin-V+ cells relative to untreated cells [7]: twofold
B1 | – | – | – | – | proportion of cells that up-regulated pSTAT5a, higher in TCM as compared to TEM ([8]; IL-7 10 ng/ml, 15 min, p<0.002): 30%±6.5; pSTAT5a response ([8]; both TCM and TEM, brief IL-7 treatment): upregulated pSTAT5a; levels of pFOXO3a at T32 [9]: threefold
